Values of other authors, collected in patent US5741892A, “Pentapeptides as antitumor agents” (Basf Aktiengesellschaft, priority 1996, dated 1998).

Columns and labels:
[1] = synthetic Dolastatin 10
[2] = test system: four different human lymphoma cell lines
[3] = test system: tubulin
[4] = test system: P388 lymphocytic leukemia (PS system) cell line

Row | Substance | solubility in aqueous systems [1] | inhibition of growth of lymphoma cell lines [2] | inhibition of tubulin polymerization [3] | inhibition of cell growth [4]
1 | Dolastatin 10 | poor solubility in aqueous systems | effectively inhibit | effectively inhibit | 
2 | Dolastatin 15 |  | effectively inhibit | effectively inhibit | inhibits the growth
